Measurements reported in patent US20170029388A1, “Treatment of Neurodegenerative Diseases with Asparagine Endopeptidase (AEP) Inhibitors and Compositions Related Thereto” (INTERCONTINENTAL GREAT BRANDS LLC, priority 2014, published 2017).
“Also recorded” adds a separate entry of the source.

What was measured:
5XFAD mice = assay: Amyloid plaque staining and Aβ ELISA in 5XFAD mice; assay type: in vivo, mouse; settings: oral once daily for 3 months
Description: A. Thioflavin-S staining of amyloid plaques in the hippocampus (HP), motor cortex (MC), and frontal cortex (FC) of 5XFAD mouse brain sections. Scale bar, 50 μm. B. Quantitative analysis of amyloid plaques. […] F. The percentage of time spent in the target quadrant in the probe trail.
Free-floating 30-μm-thick serial sections were treated with 0.3% hydrogen peroxide for 10 min, and then incubated with anti-AEP-cleaved APP (1:500) or anti-Aβ (1:500) overnight. The signal was developed using Histostain-SP kit (#956543, invitrogen) according to the manufacturer's instructions.
After rinsed in distilled water, the sections were transferred to blocking solution containing 1% sodium hydroxide and 0.9% hydrogen peroxide for 20 min. The sections were incubated for 5 s in 0.25% acidic acid, then washed in distilled water and stained for 5 min with 0.0125% Thioflavin-S in 50% ethanol. The sections were washed with 50% ethanol and placed in distilled water. Then the sections were covered with glass cover using mounting solution.
The mice brains were homogenized in 8X mass of 5 M guanidine HCl/50 mM Tris HCl (pH 8.0), and incubated at room temperature for 3 h. Then the samples were diluted with cold reaction buffer (phosphate buffered saline with 5% BSA and 0.03% Tween 20, supplemented with protease inhibitor cocktail), and centrifuged at 16 000 g for 20 min at 4° C. The supernatant were analysed by human Aβ42 ELISA kit according to the manufacturer's instructions (KHB3441, Invitrogen). The Aβ42 concentrations were determined by comparison with the standard curve.

Cathepsin-L = Cathepsin-L (Homo sapiens, UniProt P07711); assay: Cathepsin-L enzymatic assay (specificity); assay type: biochemical
Cathepsin-L, sequence (P07711 114-333, species assumed): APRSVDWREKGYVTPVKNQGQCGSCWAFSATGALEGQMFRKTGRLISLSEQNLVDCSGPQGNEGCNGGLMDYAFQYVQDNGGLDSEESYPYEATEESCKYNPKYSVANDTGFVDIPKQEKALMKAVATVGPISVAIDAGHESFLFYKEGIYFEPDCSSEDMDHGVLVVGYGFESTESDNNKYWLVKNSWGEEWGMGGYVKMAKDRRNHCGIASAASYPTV
Description: Purified recombinant enzyme was incubated with various concentrations of inhibitor in appropriate assay buffers in the presence of increasing concentrations of inhibitor. The formation of fluorescent product was monitored in duplicate reactions and the data was fit to appropriate equations to calculate the IC50 values.
To identify small-molecule inhibitors of AEP, a high-throughput screen was designed in conjunction with the Emory Chemical Biology Discovery Center. The screen incorporated mouse kidney lysates to assay a 54,384 compound library. […] Additional structural analysis and grouping allowed the compounds to be sorted into 8 distinct backbone families. […] The specificity of the compounds was also determined using four major cysteine proteases (FIG. 2).
Cathepsin-L—100 nM enzyme was pre-incubated with inhibitor in assay buffer (100 mM Sodium Acetate pH 5.5, 1 mM EDTA) for 10 min at 37° C. The reaction was initiated upon addition of 25 μM substrate (D-Val-Leu-Lys-AMC (Bachem)).

[1] = molecular target: T1, AEP in human B lymphoblastoid Pala cells (Homo sapiens, UniProt Q99538); assay: IC50 assays in intact Pala cells; assay type: cell-based; settings: 2 hr incubation, residual AEP activity in lysate
T1 construct: human B lymphoblastoid pala cells, which are rich in endogenous AEP; endogenous in cells; host or cells: Pala cells (human B lymphoblastoid)
T1 sequence (Q99538 18-323): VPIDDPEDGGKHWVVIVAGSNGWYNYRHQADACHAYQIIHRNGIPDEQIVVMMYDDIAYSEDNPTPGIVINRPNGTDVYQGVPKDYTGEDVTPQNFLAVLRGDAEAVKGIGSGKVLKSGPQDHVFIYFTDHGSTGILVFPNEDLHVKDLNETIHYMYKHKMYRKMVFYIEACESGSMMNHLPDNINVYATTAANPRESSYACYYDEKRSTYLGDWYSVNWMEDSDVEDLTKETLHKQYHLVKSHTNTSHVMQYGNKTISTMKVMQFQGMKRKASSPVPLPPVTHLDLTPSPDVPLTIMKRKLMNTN
Description: The cells were incubated with inhibitors for 2 hrs then cells washed, harvested and lysed and the residual enzymatic activity was determined. Lysate was normalized by Bradford assay and the experiment was performed in triplicate and the mean results and SEM were plotted.
In an attempt to assess the activity of the compounds in intact cells, the compounds were incubated with human B lymphoblastoid pala cells, which are rich in endogenous AEP and have been used for inhibiting AEP in cellular assay.
Human B Lymphoblastoid Pala cells, which express high concentrations of AEP, were cultured in RPMI-1640, supplemented with 10% FBS, 2 mM L-Glutamine, 100 units/mL Penicillin, 100 μg/mL Streptomycin. Various concentrations of each compound were incubated with the Pala cells for 2 hr at 37° C. Cells were collected, washed twice with PBS and lysed in Lysis Buffer (20 mM Citric Acid, 60 mM Disodium Hydrogen Orthophosphate, 1 mM EDTA, 0.1% CHAPS, pH 5.8). The protein concentrations were normalized by Bradford assay and lysates were assayed with 5 μ,M Cbz-Ala-Ala-Asn-AMC. […] Data were analyzed with GraFit version 5.0.11 software package.

| selectivity for AEP over Cathepsin-L (Cathepsin-L) | IC50 in intact Pala cells [1] | Compound | amyloid plaque deposition (Thioflavin S) (5XFAD mice; hippocampus, motor cortex, frontal cortex) | concentration of Aβ 1-40 in brain lysates (5XFAD mice) | concentration of Aβ 1-42 in brain lysates (5XFAD mice) |
| --- | --- | --- | --- | --- | --- |
| – | – | Nc1ccc(N2CCOCC2)c2nonc12 [Compound 11] | decreased; also recorded: attenuated | decreased | decreased |
| about 38 fold | slightly larger IC50 values | Sc1nnc(Nc2ccccc2)s1 [Compound BB1] | – | – | – |
